From patent US12612412B2, “Antiviral heterocyclic compounds” (Enanta Pharmaceuticals, Inc., priority 2021, dated 2026)

How the values were obtained:
[1] = test system: genotype A, "Long" strain RSV; assay: RSV-A assay (CPE protection in Hep-2 cells, ATPlite readout); type: cell-based, Human respiratory syncytial virus (HRSV); details: human respiratory syncytial virus, genotype A “Long” strain RSV, MOI 0.1, CPE protection, read-out: Human RSV-A (“Long”)
Summary of the method: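 Hep-2 cells (8,000/well) infected with RSV Long strain at MOI 0.1 in the presence of 2-fold compound dilutions in duplicate. After 5 days, cell viability measured by ATPlite luminescence, normalized between virus-only and uninfected cell controls; EC50 reported.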

[2] = test system: recombinant HMPV CAN97-83 containing eGFP (MPV-GFP1); assay: HMPV antiviral assay Method-A (MPV-GFP1 eGFP fluorescence in Vero E6 cells); type: cell-based, Human metapneumovirus (HMPV); details: human metapneumovirus, Vero C1008, 120 h, read-out: HMPV EC50
Procedure: HMPV antiviral activity was evaluated using a recombinant version of HMPV CAN97-83 engineered to contain the coding sequence for enhanced green fluorescence protein (eGFP) in the 3′ end of the virus genome (MPV-GFP1, ViraTree). Vero E6 cells ([…]) were seeded at a density of 12,000 cells/100 μL/well into 96-well cell plates one day prior to the assay. On the day of screening, the cell culture medium was aspirated from the wells and cells were washed twice with serum-free Eagle's Modified Essential Medium (EMEM, ATCC #) containing 1% penicillin-streptomycin (Invitrogen) (SF-EMEM). Cell washes were performed by dispensing 100 μL SF-EMEM per well and immediately aspirating the wash medium from the well. Following the second wash step, serum-free OptiMEM (Invitrogen, Cat No.) (SF-OptiMEM) containing 0.5 μg/mL TPCK-Trypsin (VENDOR) and 1% penicillin-streptomycin was added to the cells at 50 μL/well. Compounds were added into the 96-well plates using a JANUS automated liquid handling system (VENDOR). Compounds were initially diluted 1:50 into an intermediate 96-well plate containing SF-OptiMEM prior to transfer to the assay plate (25 μL/well). Each of the test compounds were tested in duplicate wells at final concentrations starting from 8 μM or 2 μM using ½ stepwise dilutions for a total of 8 points. Virus infection was performed by preparing a working stock of MPV-GFP1 at a multiplicity of infection (MOI) equal to 0.05/25 μL and aliquoting 25 μL of virus inoculum to the compound and positive control wells. SF-OptiMEM was added (25 μL/well) to the appropriate wells to serve as a virus-free negative control for the assay. The final DMSO concentration of all wells is 0.5%. Plates were incubated at 32° C., 5% CO2 for 5 days.
After 5 days incubation, eGFP fluorescence intensity was measured at (X) […] wavelength using a Spectramax i3× plate reader (VENDOR). Percent viral inhibition was calculated using the following equation: y=[…]
Where XQ is the fluorescence intensity measured in a well containing recombinant MPV-GFP1-infected, compound-treated cells and XP is the average fluorescence intensity measured in the wells containing untreated cells infected with recombinant virus. EC50 values were then calculated by non-linear regression using a four parameter curve logistic equation. The curve fit model employed was XLFit Dose Response One Site Model 200: y=(A+(B/(1+((x/C)^D))))
Where A is the minimum y value, B is the maximum y value, C is the log EC50 value, and D is the slope factor. […] EC50 ranges are as follows: A<0.5 μM; B>0.5 μM.

Row | Structure (SMILES) | EC50 [1] | EC50 [2]
1 | C[C@]1(C(N)=O)COc2c1cc([C@@](O)(CNC(=O)c1cc(Cl)c3nn(C(F)F)cc3c1)C(F)(F)F)nc2-c1ccc(F)c(Cl)c1 [Example 44] | < 200 nM | < 500 nM
2 | C[C@]1(C(N)=O)COc2c1cc([C@@](O)(CNC(=O)c1cc(F)c3nn(C(F)F)cc3c1)C(F)(F)F)nc2-c1ccc(F)c(Cl)c1 [Example 45] | < 200 nM | < 500 nM
3 | C[C@]1(C(N)=O)COc2c1cc([C@@](O)(CNC(=O)c1cc(C3CC3)c3nn(C(F)F)cc3c1)C(F)(F)F)nc2-c1ccc(F)cc1 [Example 47] | < 200 nM | < 500 nM
4 | C[C@]1(C(N)=O)COc2c1cc([C@@](O)(CNC(=O)c1cc(C3CC3)c3nn(C(F)F)cc3c1)C(F)(F)F)nc2-c1ccc(F)c(Cl)c1 [Example 48] | < 200 nM | < 500 nM
5 | COc1cc(C(=O)NC[C@](O)(c2cc3c(c(-c4ccc(F)cc4)n2)OC[C@]3(C)C(N)=O)C(F)(F)F)cn2cc(C(F)(F)F)nc12 [Example 49] | < 200 nM | > 500 nM
6 | Cc1cn2cc(C(=O)NC[C@](O)(c3cc4c(c(-c5ccc(F)cc5)n3)OC[C@]4(C)C(N)=O)C(F)(F)F)ccc2n1 [Example 50] | < 200 nM | > 500 nM
7 | C[C@]1(C(N)=O)COc2c1cc([C@@](O)(CNC(=O)c1ccc3nc(C4CC4)cn3c1)C(F)(F)F)nc2-c1ccc(F)cc1 [Example 51] | < 200 nM | < 500 nM
8 | Cc1cn2cc(C(=O)NC[C@](O)(c3cc4c(c(-c5ccc(F)cc5)n3)OC[C@]4(C)C(N)=O)C3CC3)ccc2n1 [Example 52] | < 200 nM | < 500 nM
9 | C[C@]1(C(N)=O)COc2c1cc([C@@](O)(CNC(=O)c1ccc3nc(C4CC4)cn3c1)C1CC1)nc2-c1ccc(F)cc1 [Example 53] | < 200 nM | < 500 nM
10 | C[C@]1(C(N)=O)COc2c1cc([C@@](O)(CNC(=O)c1ccc3nc(C(F)(F)F)cn3c1)C(F)(F)F)nc2-c1ccc(F)cc1 [Example 54] | < 200 nM | > 500 nM
11 | Cc1cn2cc(C(=O)NC[C@](O)(c3cc4c(c(-c5ccc(F)cc5)n3)OC[C@]4(C)C(N)=O)C(F)(F)F)cc(Cl)c2n1 [Example 55] | < 200 nM | < 500 nM
12 | C[C@]1(C(N)=O)COc2c1cc([C@@](O)(CNC(=O)c1cc(F)c3nc(C4CC4)cn3c1)C(F)(F)F)nc2-c1ccc(F)cc1 [Example 57] | < 200 nM | > 500 nM
13 | C[C@]1(C(N)=O)COc2c1cc([C@@](O)(CNC(=O)c1cc(F)c3nc(C4CC4)cn3c1)C(F)(F)F)nc2-c1ccc(F)c(Cl)c1 [Example 58] | < 200 nM | < 500 nM
14 | COc1cc(C(=O)NC[C@](O)(c2cc3c(c(-c4ccc(F)c(Cl)c4)n2)OC[C@]3(C)C(N)=O)C(F)(F)F)cn2cc(C3CC3)nc12 [Example 59] | < 200 nM | < 500 nM
15 | C[C@]1(C(N)=O)COc2c1cc([C@@](O)(CNC(=O)c1ccc3nc(C4CC4)cn3c1)C(F)(F)F)nc2-c1ccc(F)c(Cl)c1 [Example 60] | < 200 nM | < 500 nM
16 | COc1cc(C(=O)NC[C@](O)(c2cc3c(c(-c4ccc(F)cc4)n2)OC[C@]3(C)C(N)=O)C(F)(F)F)cn2cc(CF)nc12 [Example 62] | < 200 nM | > 500 nM
17 | C[C@]1(C(N)=O)COc2c1cc([C@@](O)(CNC(=O)c1cc(F)c3nc(CF)cn3c1)C(F)(F)F)nc2-c1ccc(F)cc1 [Example 63] | < 200 nM | > 500 nM
18 | COc1cc(C(=O)NC[C@](O)(c2cc3c(c(-c4ccc(F)cc4)n2)OC[C@]3(C)C(N)=O)C(F)(F)F)cn2cc(C(F)F)nc12 [Example 64] | < 200 nM | > 500 nM
19 | COc1cc(C(=O)NC[C@](O)(c2cc3c(c(-c4ccc(F)c(Cl)c4)n2)OC[C@]3(C)C(N)=O)C(F)(F)F)cn2cc(C(F)F)nc12 [Example 65] | < 200 nM | > 500 nM
